The clearance is the volume of plasma or blood freed of the substance per unit of time. A higher clearance goes with a high capacity for elimination. As usually defined, the half-life is how long it takes for the measured level to halve. Lower therefore signals rapid decline. By solubility (thermodynamic) is commonly meant the concentration in solution at equilibrium with solid. Usually logD stands for lipophilicity at a set pH, counting ionised and neutral species. By bioavailability is commonly meant dose-corrected exposure relative to a reference, in per cent. Higher therefore signals good availability. By Cmax is commonly meant the maximum level reached in the sampled fluid or tissue. In general, AUC refers to the area under the concentration-time curve, a measure of exposure. What is called CL/F is clearance divided by bioavailability, as obtained after extravascular dosing.

Series [1] in a line: in vivo. The note with it: Sprague-Dawley, rat, iv, 0.4 mg/kg.
Series [2] is described as follows: in vitro. The following applies: Sprague-Dawley, rat, hepatocytes.
The nature of series [3]: physchem. The following applies: buffer, pH 2.
The nature of series [4]: physchem. The following applies: buffer, pH 7.4.
Series [5] is described as follows: physchem. The following applies: octanol/PBS buffer, pH 7.2.
Series [6] in a line: in vivo. The note with it: Sprague-Dawley, rat, po, 2 mg/kg.
Series [7] can be described thus: in vitro. The note with it: human, hepatocytes.
Series [8] can be described thus: in vivo. The following applies: Sprague-Dawley, rat, po, 0.4 mg/kg.
A short description of series [9]: in vivo. The following applies: Sprague-Dawley, rat, plasma, po, 2 mg/kg.
For a further series, the species on record is Rattus norvegicus. The note with it: in vivo, po, 2 mg/kg.
A short description of series [10]: in vivo. The note with it: rat, po, 2 mg/kg.
Series [11] is described as follows: in vivo. The following applies: rat, po, 2 mg/kg. This is another data set of the same source.
Series [12] in a line: AUC in rat at 2 mg/kg, po. In kind it is ADME, organism-based. The arrangement: dose 2 mg/kg, route oral. The note with it: plasma.
Series [13] can be described thus: Clearance in rat at 2 mg/kg, po. The following applies: in vivo. The arrangement: dose 2 mg/kg, route oral. In kind it is ADME, organism-based.

In brackets after ≈: the same amount, converted by molar mass.

Turning to `Cc1nc2cnc3[nH]ccc3c2n1C1CCNCC1`, the clearance in “in vivo [1]” was determined as 43 mL/min/kg. For the same compound, the half-life at 1 µM in “in vitro [2]” and in “in vitro [7]” was > 8 h each time. The thermodynamic solubility at 24 h was > 5000 µM in “physchem [3]” and > 1500 µM in the series “physchem [4]”. Also, the pH-dependent lipophilicity (logD) at 1 h, 10000 µM in “physchem [5]” came out at 0.1. Also, in the series “in vivo [6]”, the bioavailability was determined as 4%. Also, the peak level in “in vivo [8]” (Cmax) was 60 nM. In addition, the exposure (AUC) in the series “in vivo [9]” came out at 0.12 µM·h.
In “physchem [5]”, `Cc1nc2cnc3[nH]ccc3c2n1C1CCN(CCC#N)CC1` came in with a logD at 1 h, 10000 µM of 1.3. Also, the half-life at 1 µM in “in vitro [7]” was > 8 h.
In the same order, the values of `Cc1nc2cnc3[nH]ccc3c2n1[C@H]1CCCOC1` are 1.8 and 6.3 h.
In the same order, the values of `Cc1nc2cnc3[nH]ccc3c2n1[C@H]1CCCNC1` are 0.6 and > 8 h.
In turn, `Cc1nc2cnc3[nH]ccc3c2n1[C@H]1CC[C@H](NCCC#N)CC1` had a clearance in “in vivo [1]” of 80 mL/min/kg. Also, the half-life at 1 µM in “in vitro [2]” and in the series “in vitro [7]” was > 8 h each time. For the same compound, the results for the thermodynamic solubility at 24 h in the series “physchem [3]” and in “physchem [4]” were > 5000 µM and > 1500 µM, respectively. For the same compound, in the series “physchem [5]”, the logD at 1 h, 10000 µM amounted to 0.9. This compound also displayed a bioavailability in “in vivo [6]” of 13%. This compound had a Cmax in “in vivo [8]” of 150 nM. For the same compound, the exposure (AUC) in the series “in vivo [9]” was found to be 0.18 µM·h.
Turning to `Cc1nc2cnc3[nH]ccc3c2n1[C@H]1CC[C@H](NS(C)(=O)=O)CC1`, the logD at 1 h, 10000 µM in the series “physchem [5]” is 1.2. Further, the half-life at 1 µM in “in vitro [7]” was > 8 h.
`CC(=O)N[C@H]1CC[C@H](n2c(C)nc3cnc4[nH]ccc4c32)CC1` came in with a pH-dependent lipophilicity (logD) at 1 h, 10000 µM in “physchem [5]” of 1.1.
As to `COC(=O)N[C@H]1CC[C@H](n2c(C)nc3cnc4[nH]ccc4c32)CC1`, in “in vivo [1]”, the clearance turned out to be 40 mL/min/kg. In addition, the half-life at 1 µM in the series “in vitro [2]” was 3.5 h; in the series “in vitro [7]” it was 3.9 h. Besides, the figures for the thermodynamic solubility at 24 h in the series “physchem [3]” and in the series “physchem [4]” were 2300 µM (≈ 753 µg/mL) and 40 µM (≈ 13.1 µg/mL), respectively. In “physchem [5]”, this compound had a pH-dependent lipophilicity (logD) at 1 h, 10000 µM of 2. For the same compound, the bioavailability in “in vivo [6]” is 54%. This compound showed a maximum concentration (Cmax) in the series “in vivo [8]” of 550 nM. The same compound yielded an AUC in the series “in vivo [9]” of 1.4 µM·h.
On to `Cc1nc2cnc3[nH]ccc3c2n1[C@H]1CC[C@H](O)CC1`, for which the logD at 1 h, 10000 µM in the series “physchem [5]” came to 1.4. Moreover, the half-life at 1 µM in “in vitro [7]” is > 8 h.
On to `Cc1nc2cnc3[nH]ccc3c2n1[C@H]1CC[C@@H](O)CC1`, for which the log distribution coefficient (logD) at 1 h, 10000 µM in the series “physchem [5]” came out at 1.4. Moreover, the half-life at 1 µM in the series “in vitro [7]” is > 8 h.
With `Cc1nc2cnc3[nH]ccc3c2n1[C@@H]1CCNC[C@H]1F` (relative stereo), the clearance in “in vivo [1]” stood at 40 mL/min/kg. Also, the half-life at 1 µM in “in vitro [2]” was 1.6 h; in “in vitro [7]”, 1.8 h. The thermodynamic solubility at 24 h in “physchem [4]” was > 1500 µM. The compound further came in with a F in the series filed under Rattus norvegicus of 172%. Moreover, the logD at 1 h, 10000 µM in the series “physchem [5]” is 1.2. Further, the highest level in the series “in vivo [8]” (Cmax) was 4500 nM. This compound returned an exposure (AUC) in “in vivo [9]” of 5.3 µM·h.
The compound `Cc1nc2cnc3[nH]ccc3c2n1[C@@H]1CCNC[C@@H]1F` (relative stereo) came in with a pH-dependent lipophilicity (logD) at 1 h, 10000 µM in “physchem [5]” of 0.7.
On to `Cc1nc2cnc3[nH]ccc3c2n1[C@@H]1CCCC[C@H]1O` (relative stereo), for which the logD at 1 h, 10000 µM in “physchem [5]” is 1.6. In “in vitro [7]”, the half-life at 1 µM is > 8 h.
In the series “in vivo [10]”, `C[C@@H]1CCN(C(=O)CC#N)C[C@@H]1N(C)c1ncnc2[nH]ccc12` [TOFACITINIB] yielded a Cmax of 1700 nM. In “in vivo [11]”, this compound registered a bioavailability of 87%. Further, the exposure (AUC) in series [12] was 2.1 µM·h. Besides, the apparent clearance CL/F in series [13] is 43 mL/min/kg.

(Values after ChEMBL document CHEMBL2157937, “Discovery and optimization of C-2 methyl imidazopyrrolopyridines as potent and orally bioavailable JAK1 inhibitors with selectivity over JAK2” (J Med Chem, 2012).)
